Assay results from patent US6482802B1 (Endowment for Research in Human Biology, Inc., priority 1998, dated 2002).
pIC50: −log10 of the molar value. Where “and” joins values, the source holds several entries; their conditions need not be identical. Identical values can stand only once. Entries after “also recorded” stand apart in the source; their conditions may differ.

Assays:
[1] = tested on: HUVE cells; experiment: bFGF-induced proliferation of HUVE cells (neomycin dose series); type: cell-based, human; settings: for bFGF Cell No.: bFGF 10 ng/ml, 48 hrs, 0 μM: 59600 ± 2600
Method: (§1) The cells were incubated at 37° C. under humidified air containing 5% CO2 for 48 hrs. […] Cell numbers were determined with a Coulter counter.

[2] = tested on: HUVE cells; experiment: Angiogenin-induced proliferation of HUVE cells; type: cell-based, human
Method: (§2) HUVE cells were seeded at 4×10^3 cells/cm^2 in attachment factor (Cell Systems Corp.)-coated 35 mm dishes in HE-SFM, and incubated with 1 μg/ml angiogenin in the presence or absence of inhibitors at 37° C. for 48 hr. Cell were detached by trypsinization and cell numbers were determined with a Coulter counter.

[3] = tested on: HUVE cells; experiment: aFGF-induced proliferation of HUVE cells; type: cell-based, human; settings: for aFGF Cell No.: aFGF 10 ng/ml, 48 hrs, 0 μM: 73900 ± 2500
Method: as §1

[4] = biological target: T1, Human angiogenin (Homo sapiens, UniProt P03950); experiment: Ribonucleolytic activity of angiogenin, yeast tRNA substrate; type: biochemical
T1 construct: made in house; host or cells: Escherichia coli
T1 sequence (P03950 with tags, fused parts or gaps): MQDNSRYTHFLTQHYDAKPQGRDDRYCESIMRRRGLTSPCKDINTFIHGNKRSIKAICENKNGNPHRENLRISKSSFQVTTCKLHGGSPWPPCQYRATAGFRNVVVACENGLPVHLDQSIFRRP
Method: After incubation for 2 hr at 37° C., […] of 3.4% ice-cold perchloric acid was added, the mixture was vortexed, kept on ice for […] and centrifuged at 15,000×g for 10 min at 4° C. The absorbance of the supernatants was measured at 260 nm.

[5] = tested on: HUVE cells; experiment: VEGF-induced proliferation of HUVE cells; type: cell-based, human; settings: for VEGF Cell No.: VEGF 5 ng/ml, 48 hrs, 0 μM: 45100 ± 200
Method: as §1

[6] = tested on: HUVE cells; experiment: bFGF-induced proliferation of HUVE cells, aminoglycoside antibiotics; type: cell-based, human; settings: aminoglycoside 100 μM
Method: as §2
The ability of the other members of the aminoglycoside antibiotic family to inhibit bFGF-induced proliferation of HUVE cells was examined in a similar manner as for angiogenin as described in Section 6.1.1.5, above. HUVE cells, passage 9, were seeded on attachment-factor coated dishes at 50,000 cells per 35 mm dish in HE-SFM. Aminoglycoside antibiotics were added and the cells were incubated with or without […] at 37° C. for 48 hr.

[7] = tested on: MDA-MB-435 human breast tumor cells; type: in vivo
Method: MDA-MA-435 human breast tumor cells, which are estrogen receptor negative, were injected directly into the mammary fat pad of athymic mice. Age-matched athymic female mice were assigned to treatment groups of 8 mice each and anesthetized with ketamine (212 mg/kg body weight) and xylazine (21.2 mg/kg body weight) given intraperitoneally and allowed to stabilize under anesthesia for 15 min. A heating pad was used to maintain their body temperature throughout the procedure to minimize stress. Betadine followed by 70% alcohol was swabbed onto the skin of the left lateral thorax. An incision of 6 mm in length was made through the skin in the area of the left lateral thorax behind the left front leg and the mammary fat pad was exposed by using gentle pressure with two fingers to separate the skin at the incision site. MDA-MB-435 human breast tumor cells were harvested by trypsinization, washed in HBSS, counted using trypan blue exclusion to determine cell viability, and 10,000 cells in a total volume of 20 μl were injected into the fat pad using a 27 gauge needle. The incision was closed with 2 drops of Vetbond veterinarian tissue adhesive and the mouse was allowed to recover on the heating pad before returning to its cage. […] Mice were examined daily for tumor growth by gentle palpation of the lateral left thorax in the general area of the injection.

[8] = tested on: chorioallantoic membrane (CAM) of chick embryos; experiment: CAM assay, bFGF-induced angiogenesis; type: in vivo; settings: for % Positive: bFGF alone 78, water 21
Method: (§3) Angiogenesis was measured on the CAM by the method of Knighton et al. (Knighton et al., 1977, Br. J. Cancer 35:347-356) essentially as described (Fett et al., 1985, Biochemistry 24:5480-5486). Fertilized chicken eggs were kept at 18° C. for 2 days and then incubated in a humidified environment at 37° C. for 3 days. Albumin was aspirated from the embryos and after 24 hours, a “window” was cut through the shell and covered with clear tape. […] After 48-68 hours at 37° C., the growth of blood vessels was observed microscopically and recorded as either positive or negative. A positive response (i.e., an angiogenic response) has a typical “spokewheel” appearance.

[9] = tested on: chorioallantoic membrane (CAM) of chick embryos; experiment: CAM assay, VEGF-induced angiogenesis; type: in vivo; settings: for % Positive: VEGF alone 63, water 21
Method: as §3

[10] = tested on: HUVE cells; experiment: EGF-induced proliferation of HUVE cells; type: cell-based, human; settings: for EGF Cell No.: EGF 5 ng/ml, 48 hrs, 0 μM 5300 ± 300
Method: as §1

[11] = tested on: chorioallantoic membrane (CAM) of chick embryos; experiment: CAM assay, neomycin alone without angiogenic factor; type: in vivo
Method: as §3

[12] = tested on: chorioallantoic membrane (CAM) of chick embryos; experiment: CAM assay, EGF-induced angiogenesis; type: in vivo; settings: for % Positive: EGF alone 69, water 21
Method: as §3

[13] = tested on: PC-3 human prostate tumor cells
Excerpt: Mice were examined daily by palpation for the first sign of tumor appearance at which time tumor size was estimated twice weekly by caliper measurements (longest perpendicular length and width).

Substance: neomycin
- bFGF Inhib. % of cell proliferation ([1]; neomycin 25 μM): 19%
- bFGF Cell No. ([1]; neomycin 25 μM): 51500 ± 700
- bFGF Inhib. % of cell proliferation ([1]; neomycin 50 μM): 34%
- bFGF Cell No. ([1]; neomycin 50 μM): 45900 ± 1200
- bFGF Inhib. % of cell proliferation ([1]; neomycin 100 μM): 41%
- bFGF Cell No. ([1]; neomycin 100 μM): 42600 ± 200
- bFGF Inhib. % of cell proliferation ([1]; neomycin 150 μM): 49%
- bFGF Cell No. ([1]; neomycin 150 μM): 39900 ± 125
- bFGF Inhib. % of cell proliferation ([1]; neomycin 200 μM): 64%
- bFGF Cell No. ([1]; neomycin 200 μM): 34600 ± 400
- pIC50 ([1]; read-out: IC50, bFGF-induced proliferation of endothelial cells): ~4.00
- pIC50 ([2]; HUVE cells, angiogenin 1 μg/ml, 48 hr, read-out: IC50, angiogenin-induced EC proliferation): ~5.00 and > 5.00
- Cell number ([2]; aminoglycoside 100 μM, with angiogenin 1 μg/ml, none: 62,500 ± 100): 53,400 ± 1,900
- Cell number ([2]; aminoglycoside 100 μM, without angiogenin, none: 52,000 ± 100): 52,700 ± 700
- percent of cell number in the presence of 1 μg/ml angiogenin relative to the corresponding control ([2]; aminoglycoside 100 μM, none: 120): 101%
- inhibition of proliferative activity of angiogenin ([2]; neomycin 5 μM, angiogenin 1 μg/ml, 48 hr): 49%
- inhibition of angiogenin-induced cell proliferation ([2]; neomycin 25 μM, angiogenin 1 μg/ml, 48 hr): 69%
- angiogenin-induced cell proliferation ([2]; neomycin 50 μM, angiogenin 1 μg/ml, 48 hr): completely abolished
- effect of neomycin alone on cell proliferation ([2]; no angiogenin, 48 hr): neither induced nor inhibited cell proliferation
- aFGF Inhib. % of cell proliferation ([3]; neomycin 25 μM): 25%
- aFGF Cell No. ([3]; neomycin 25 μM): 60000 ± 400
- aFGF Inhib. % of cell proliferation ([3]; neomycin 50 μM): 42%
- aFGF Cell No. ([3]; neomycin 50 μM): 51300 ± 400
- aFGF Inhib. % of cell proliferation ([3]; neomycin 100 μM): 50%
- aFGF Cell No. ([3]; neomycin 100 μM): 46700 ± 800
- aFGF Inhib. % of cell proliferation ([3]; neomycin 150 μM): 63%
- aFGF Cell No. ([3]; neomycin 150 μM): 41000 ± 1000
- aFGF Inhib. % of cell proliferation ([3]; neomycin 200 μM): 68%
- aFGF Cell No. ([3]; neomycin 200 μM): 37500 ± 200
- pIC50 ([3]; read-out: IC50, aFGF-induced proliferation of endothelial cells): ~4.00
- ribonucleolytic activity of angiogenin, % of control ([4]; neomycin 5 μM): 87%
- ribonucleolytic activity of angiogenin, % of control ([4]; neomycin 10 μM): 105%
- ribonucleolytic activity of angiogenin, % of control ([4]; neomycin 50 μM): 88%
- VEGF Inhib. % of cell proliferation ([5]; neomycin 25 μM): 14%
- VEGF Cell No. ([5]; neomycin 25 μM): 41000 ± 300
- VEGF Inhib. % of cell proliferation ([5]; neomycin 50 μM): 20%
- VEGF Cell No. ([5]; neomycin 50 μM): 38900 ± 1300
- VEGF Inhib. % of cell proliferation ([5]; neomycin 100 μM): 22%
- VEGF Cell No. ([5]; neomycin 100 μM): 36400 ± 400
- VEGF Inhib. % of cell proliferation ([5]; neomycin 150 μM): 36%
- VEGF Cell No. ([5]; neomycin 150 μM): 35000 ± 200
- VEGF Inhib. % of cell proliferation ([5]; neomycin 200 μM): 34%
- VEGF Cell No. ([5]; neomycin 200 μM): 33800 ± 200
- % Inhibition of bFGF-induced cell proliferation ([6]; bFGF 10 ng/ml): 71%
- bFGF (10 ng/ml) Cell Numbers ([6]; bFGF 10 ng/ml, 48 hr, control 99000 ± 1000): 68400 ± 800
- Control (cell number without bFGF) ([6]; no bFGF, 48 hr, control 61300 ± 500): 58000 ± 1500
- establishment of MDA-MB-435 human breast tumors ([7]; 60 mg/kg body weight i.p., daily 20 days, then 4 times per week 42 days, 8 mice): completely inhibited the establishment
- mice with tumors by day 56 ([7]; 60 mg/kg i.p., all 8 control mice developed tumors): none of the mice had tumors
- % Inhibition of angiogenic activity ([8]; bFGF 10 ng + neomycin 20 ng): 58%
- Positive eggs ([8]; bFGF 10 ng + neomycin 20 ng, 33 total eggs): 15
- % Positive ([8]; bFGF 10 ng + neomycin 20 ng): 45%
- % Inhibition of angiogenic activity ([8]; bFGF 10 ng + neomycin 200 ng): 81%
- Positive eggs ([8]; bFGF 10 ng + neomycin 200 ng, 38 total eggs): 12
- % Positive ([8]; bFGF 10 ng + neomycin 200 ng): 34% and 32%
- dosage that inhibited bFGF-induced angiogenesis ([8]; in vivo): about 200 ng per embryo
- % Inhibition of angiogenic activity ([9]; VEGF 10 ng + neomycin 200 ng): 10%
- Positive eggs ([9]; VEGF 10 ng + neomycin 200 ng, 24 total eggs): 14
- % Positive ([9]; VEGF 10 ng + neomycin 200 ng): 58%
- % Inhibition of angiogenic activity ([9]; VEGF 10 ng + neomycin 1000 ng): 24%
- % Positive ([9]; VEGF 10 ng + neomycin 1000 ng (1 μg)): 52%
- Positive eggs ([9]; VEGF 10 ng + neomycin 1000 ng, 27 total eggs): 14
- inhibition of angiogenic activity of VEGF on the CAM ([9]; VEGF 10 ng, neomycin 200 ng and 1 μg): did not significantly inhibit; also recorded: not significantly inhibited
- reduction of angiogenic activity of VEGF on the CAM ([9]; dosage as high as 900 ng per embryo): did not significantly reduce
- EGF Inhib. % of cell proliferation ([10]; neomycin 25 μM): 17%
- EGF Cell No. ([10]; neomycin 25 μM): 46700 ± 600
- EGF Inhib. % of cell proliferation ([10]; neomycin 50 μM): 35%
- EGF Cell No. ([10]; neomycin 50 μM): 41700 ± 600
- EGF Inhib. % of cell proliferation ([10]; neomycin 100 μM): 59%
- EGF Cell No. ([10]; neomycin 100 μM): 35700 ± 1100
- EGF Inhib. % of cell proliferation ([10]; neomycin 150 μM): 71%
- EGF Cell No. ([10]; neomycin 150 μM): 32800 ± 200
- EGF Inhib. % of cell proliferation ([10]; neomycin 200 μM): 100%
- EGF Cell No. ([10]; neomycin 200 μM): 26000 ± 900
- pIC50 ([10]; read-out: IC50, EGF-induced proliferation of endothelial cells): ~4.00
- induction of angiogenesis by neomycin itself ([11]; about 5 to about 50 μM (20 to 200 ng in 5 μl)): does not induce angiogenesis
- Positive eggs ([11]; neomycin 20 ng alone, 50 total eggs): 10
- % Positive ([11]; neomycin 20 ng alone, water 20-21): 20%
- Positive eggs ([11]; neomycin 200 ng alone, 29 total eggs): 6
- % Positive ([11]; neomycin 200 ng alone, water 20-21): 21%
- Positive eggs ([11]; neomycin 1000 ng alone, 13 total eggs): 3
- % Positive ([11]; neomycin 1000 ng alone, water 21): 23%
- % Inhibition of angiogenic activity ([12]; EGF 10 ng + neomycin 20 ng): 19%
- Positive eggs ([12]; EGF 10 ng + neomycin 20 ng, 15 total eggs): 9
- % Positive ([12]; EGF 10 ng + neomycin 20 ng): 60%
- % Inhibition of angiogenic activity ([12]; EGF 10 ng + neomycin 200 ng): 81%
- Positive eggs ([12]; EGF 10 ng + neomycin 200 ng, 30 total eggs): 9
- % Positive ([12]; EGF 10 ng + neomycin 200 ng): 30%
- dosage that inhibited EGF-induced angiogenesis ([12]; in vivo): about 200 ng per embryo
- mice in which appearance of PC-3 tumors was prevented ([13]; 20 mg/kg body weight s.c., 6 times per week 20 days, then 4 times per week 30 days, 6 mice): 50%
- tumor status of treated mice by day 18 ([13]; 20 mg/kg s.c., control 2 of 6 with tumor): all of the mice in the neomycin-treated group remained tumor-free
- animals that had developed tumors as of day 42 ([13]; 20 mg/kg s.c., control 100%): 50%
